Measurements as given in patent publication US20050255096A1, “Combination treatment for acute myocardial infarction” (priority 2002, published 2005).

Tested on: patients with acute myocardial infarction
Assay: Effect of the combination on the mortality of the patients with acute myocardial infarction (180 day mortality)
Format: in vivo
Details: 6-hour infusion of levosimendan, bolus 6, 12 or 24 μg/kg then 0.1, 0.2 or 0.4 μg/kg/min
Experimental: Effect of the combination on the mortality of the patients with acute myocardial infarction
Patients who had suffered from acute myocardial infarction within five days received placebo or a 6-hour infusion of levosimendan using a bolus of 6, 12 or 24 μg/kg and subsequent infusion of 0.1, 0.2 or 0.4 μg/kg/min. Patients were divided according to whether they had received thrombolytic therapy or not. The 180 day mortality was measured. It can be seen that the combination provided synergistic reduction in the mortality of patients with acute myocardial infarction.

[1] = patients who did not receive thrombolytic, N = 331
[2] = patients who received thrombolytic, N = 70

## CC1CC(=O)NN=C1c1ccc(NN=C(C#N)C#N)cc1 (single isomer, unassigned; (-)) [Levosimendan, (−)-enantiomer of [[4-(1,4,5,6-tetrahydro-4-methyl-6-oxo-3-pyridazinyl)phenyl]hydrazono]propanedinitrile]
[1]
  180-day mortality, Event (%): 24.8%
  180-day mortality, Event n: 82
[2]
  180-day mortality, Event (%): 12.8%
  180-day mortality, Event n: 9
